These are literature values, as cited in paper PMC6882435, “Preparation and study of two kinds of ophthalmic nano-preparations of everolimus” (Drug Delivery, 2019).

Details of series [1]: method as in Iwase & Maitani, 2012. The note with it: raw material at room temperature; ref Iwase & Maitani, 2012.
Details of series [2]: method as in Baspinar et al., 2008; Tedesco-Silva et al., 2019. Conditions: patients that take the drug (systemic, oral); ref Baspinar et al., 2008; Tedesco-Silva et al., 2019.

Regarding `CO[C@H]1C[C@@H]2CC[C@@H](C)[C@@](O)(O2)C(=O)C(=O)N2CCCC[C@H]2C(=O)O[C@H]([C@H](C)C[C@@H]2CC[C@@H](OCCO)[C@H](OC)C2)CC(=O)[C@H](C)/C=C(\C)[C@@H](O)[C@@H](OC)C(=O)[C@H](C)C[C@H](C)/C=C/C=C/C=C/1C` [Everolimus, 4 O-O-(2-hydroxyethyl)-rapamycin], in series [1], the solubility entry is “about 9.6 μg·mL^−1”. Besides, the “patients with side effects such as thrombocytopenia and dyslipidemia” value in series [2] was “about 30%”.
